# The supplement of paper PMC10307832
# Experiments:
# Experiment in all cases: relative viability (nuclei count vs DMSO), 5 days (fraction); higher = more cells survive
# ABC-1 = test system: ABC-1
# Procedure, shortened: (§1)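 Lung cancer cell lines, seeded in 1536-well plates, were treated the following day by pin tool with a single drug or with five library-drug doses (not always all listed) in √10 steps on top of a fixed anchor-drug dose. Cells were fixed and nuclei stained in one step after 5 days, and nuclei were counted. Relative viability is the nuclei count for treated wells divided by that for vehicle wells, reported as medians of duplicate plates.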
# CAL-12T = test system: CAL-12T
# Procedure, shortened: as §1
# COR-L 105 = test system: COR-L 105
# Procedure, shortened: as §1
# ChaGo-K-1 = test system: ChaGo-K-1
# Procedure, shortened: as §1
# EMC-BAC-2 = test system: EMC-BAC-2
# Procedure, shortened: as §1
# EPLC-272H = test system: EPLC-272H
# Procedure, shortened: as §1
# HCC-15 = test system: HCC-15
# Procedure, shortened: as §1
# HCC-78 = test system: HCC-78
# Procedure, shortened: as §1
# HOP-62 = test system: HOP-62
# Procedure, shortened: as §1
# LXF-289 = test system: LXF-289
# Procedure, shortened: as §1
# NCI-H1666 = test system: NCI-H1666
# Procedure, shortened: as §1
# NCI-H1755 = test system: NCI-H1755
# Procedure, shortened: as §1
# NCI-H1915 = test system: NCI-H1915
# Procedure, shortened: as §1
# NCI-H1975 = test system: NCI-H1975
# Procedure, shortened: as §1
# NCI-H2023 = test system: NCI-H2023
# Procedure, shortened: as §1
# NCI-H2085 = test system: NCI-H2085
# Procedure, shortened: as §1
# NCI-H2126 = test system: NCI-H2126
# Procedure, shortened: as §1
# NCI-H3122 = test system: NCI-H3122
# Procedure, shortened: as §1
# NCI-H322M = test system: NCI-H322M
# Procedure, shortened: as §1
# NCI-H358 = test system: NCI-H358
# Procedure, shortened: as §1
# NCI-H441 = test system: NCI-H441
# Procedure, shortened: as §1
# UMC-11 = test system: UMC-11
# Procedure, shortened: as §1
smiles,measurement,setting,value
COc1cc2nccc(Oc3ccc(NC(=O)Nc4cc(C)on4)c(Cl)c3)c2cc1OC [Tivozanib] + O=C(CCCCCCC(=O)Nc1ccccc1)NO [Vorinostat] (partner 1 µM),relative viability,ABC-1; first compound 0.005 µM,0.694
same,relative viability,ABC-1; first compound 0.01581 µM,1.11
same,relative viability,ABC-1; first compound 0.05 µM,1.3
same,relative viability,ABC-1; first compound 0.1581 µM,0.926
same,relative viability,ABC-1; first compound 0.5 µM,0.842
same,relative viability,CAL-12T; first compound 0.005 µM,0.842
same,relative viability,CAL-12T; first compound 0.01581 µM,0.744
same,relative viability,CAL-12T; first compound 0.05 µM,0.891
same,relative viability,CAL-12T; first compound 0.1581 µM,0.539
same,relative viability,CAL-12T; first compound 0.5 µM,0.473
same,relative viability,COR-L 105; first compound 0.005 µM,0.696
same,relative viability,COR-L 105; first compound 0.01581 µM,0.743
same,relative viability,COR-L 105; first compound 0.05 µM,0.801
same,relative viability,COR-L 105; first compound 0.1581 µM,0.821
same,relative viability,COR-L 105; first compound 0.5 µM,0.794
same,relative viability,ChaGo-K-1; first compound 0.005 µM,0.692
same,relative viability,ChaGo-K-1; first compound 0.01581 µM,0.727
same,relative viability,ChaGo-K-1; first compound 0.05 µM,0.773
same,relative viability,ChaGo-K-1; first compound 0.1581 µM,0.756
same,relative viability,ChaGo-K-1; first compound 0.5 µM,0.63
same,relative viability,EMC-BAC-2; first compound 0.005 µM,0.281
same,relative viability,EMC-BAC-2; first compound 0.01581 µM,0.548
same,relative viability,EMC-BAC-2; first compound 0.05 µM,0.5
same,relative viability,EMC-BAC-2; first compound 0.1581 µM,0.345
same,relative viability,EMC-BAC-2; first compound 0.5 µM,0.201
same,relative viability,EPLC-272H; first compound 0.005 µM,0.452
same,relative viability,EPLC-272H; first compound 0.01581 µM,0.617
same,relative viability,EPLC-272H; first compound 0.05 µM,0.385
same,relative viability,EPLC-272H; first compound 0.1581 µM,0.435
same,relative viability,EPLC-272H; first compound 0.5 µM,0.281
same,relative viability,HCC-15; first compound 0.005 µM,0.797
same,relative viability,HCC-15; first compound 0.01581 µM,0.896
same,relative viability,HCC-15; first compound 0.05 µM,0.857
same,relative viability,HCC-15; first compound 0.1581 µM,0.863
same,relative viability,HCC-15; first compound 0.5 µM,0.886
same,relative viability,HCC-78; first compound 0.005 µM,0.408
same,relative viability,HCC-78; first compound 0.01581 µM,0.47
same,relative viability,HCC-78; first compound 0.05 µM,0.412
same,relative viability,HCC-78; first compound 0.1581 µM,0.467
same,relative viability,HCC-78; first compound 0.5 µM,0.363
same,relative viability,HOP-62; first compound 0.005 µM,0.633
same,relative viability,HOP-62; first compound 0.01581 µM,0.638
same,relative viability,HOP-62; first compound 0.05 µM,0.652
same,relative viability,HOP-62; first compound 0.1581 µM,0.376
same,relative viability,HOP-62; first compound 0.5 µM,0.434
same,relative viability,LXF-289; first compound 0.005 µM,0.647
same,relative viability,LXF-289; first compound 0.01581 µM,0.674
same,relative viability,LXF-289; first compound 0.05 µM,0.741
same,relative viability,LXF-289; first compound 0.1581 µM,0.939
same,relative viability,LXF-289; first compound 0.5 µM,0.684
same,relative viability,NCI-H1666; first compound 0.005 µM,1.07
same,relative viability,NCI-H1666; first compound 0.01581 µM,1.01
same,relative viability,NCI-H1666; first compound 0.05 µM,1.11
same,relative viability,NCI-H1666; first compound 0.1581 µM,1.09
same,relative viability,NCI-H1666; first compound 0.5 µM,0.978
same,relative viability,NCI-H1755; first compound 0.005 µM,0.742
same,relative viability,NCI-H1755; first compound 0.01581 µM,0.786
same,relative viability,NCI-H1755; first compound 0.05 µM,0.739
same,relative viability,NCI-H1755; first compound 0.1581 µM,0.706
same,relative viability,NCI-H1755; first compound 0.5 µM,0.587
same,relative viability,NCI-H1915; first compound 0.005 µM,0.488
same,relative viability,NCI-H1915; first compound 0.01581 µM,0.503
same,relative viability,NCI-H1915; first compound 0.05 µM,0.567
same,relative viability,NCI-H1915; first compound 0.1581 µM,0.391
same,relative viability,NCI-H1915; first compound 0.5 µM,0.399
same,relative viability,NCI-H1975; first compound 0.005 µM,0.663
same,relative viability,NCI-H1975; first compound 0.01581 µM,0.731
same,relative viability,NCI-H1975; first compound 0.05 µM,0.712
same,relative viability,NCI-H1975; first compound 0.1581 µM,0.699
same,relative viability,NCI-H1975; first compound 0.5 µM,0.666
same,relative viability,NCI-H2023; first compound 0.005 µM,0.488
same,relative viability,NCI-H2023; first compound 0.01581 µM,0.694
same,relative viability,NCI-H2023; first compound 0.05 µM,0.703
same,relative viability,NCI-H2023; first compound 0.1581 µM,0.48
same,relative viability,NCI-H2023; first compound 0.5 µM,0.441
same,relative viability,NCI-H2085; first compound 0.005 µM,0.754
same,relative viability,NCI-H2085; first compound 0.01581 µM,0.796
same,relative viability,NCI-H2085; first compound 0.05 µM,0.825
same,relative viability,NCI-H2085; first compound 0.1581 µM,0.709
same,relative viability,NCI-H2085; first compound 0.5 µM,0.786
same,relative viability,NCI-H2126; first compound 0.005 µM,0.795
same,relative viability,NCI-H2126; first compound 0.01581 µM,0.822
same,relative viability,NCI-H2126; first compound 0.05 µM,0.82
same,relative viability,NCI-H2126; first compound 0.1581 µM,0.482
same,relative viability,NCI-H2126; first compound 0.5 µM,0.729
same,relative viability,NCI-H3122; first compound 0.005 µM,0.644
same,relative viability,NCI-H3122; first compound 0.01581 µM,1.12
same,relative viability,NCI-H3122; first compound 0.05 µM,0.97
same,relative viability,NCI-H3122; first compound 0.1581 µM,1.03
same,relative viability,NCI-H3122; first compound 0.5 µM,0.822
same,relative viability,NCI-H322M; first compound 0.005 µM,0.768
same,relative viability,NCI-H322M; first compound 0.01581 µM,0.857
same,relative viability,NCI-H322M; first compound 0.05 µM,0.87
same,relative viability,NCI-H322M; first compound 0.1581 µM,0.665
same,relative viability,NCI-H322M; first compound 0.5 µM,0.744
same,relative viability,NCI-H358; first compound 0.005 µM,0.652
same,relative viability,NCI-H358; first compound 0.01581 µM,0.761
same,relative viability,NCI-H358; first compound 0.05 µM,0.779
same,relative viability,NCI-H358; first compound 0.1581 µM,0.62
same,relative viability,NCI-H358; first compound 0.5 µM,0.37
same,relative viability,NCI-H441; first compound 0.005 µM,0.765
same,relative viability,NCI-H441; first compound 0.01581 µM,0.771
same,relative viability,NCI-H441; first compound 0.05 µM,0.743
same,relative viability,NCI-H441; first compound 0.1581 µM,0.801
same,relative viability,NCI-H441; first compound 0.5 µM,0.745
same,relative viability,UMC-11; first compound 0.005 µM,0.404
same,relative viability,UMC-11; first compound 0.01581 µM,0.36
same,relative viability,UMC-11; first compound 0.05 µM,0.349
same,relative viability,UMC-11; first compound 0.1581 µM,0.328
same,relative viability,UMC-11; first compound 0.5 µM,0.329
